Laboratory results taken from US20240279283A1, “CYCLIC PEPTIDE ANTIBIOTICS” (priority 2021, published 2024).
Bridge positions count the residues as written; N and C are the ends. Square brackets hold non-standard residues; d marks the D form. Peptide text beside a SMILES is read from it. Bip = N[C@@H](Cc1ccc(-c2ccccc2)cc1)C(=O)O; Phe(4-Cl) = N[C@@H](Cc1ccc(Cl)cc1)C(=O)O; 1Nal = N[C@@H](Cc1cccc2ccccc12)C(=O)O; His(π-Me) = Cn1cncc1C[C@H](N)C(=O)O; NMeY = CN[C@@H](Cc1ccc(O)cc1)C(=O)O; NMeF = CN[C@@H](Cc1ccccc1)C(=O)O; Abu = CC[C@H](N)C(=O)O; Aib = CC(C)(N)C(=O)O

Assays:
Format in all cases: cell-based
Settings in all cases: LB broth, 5×10^5 CFU/ml, 37° C., 18 hours, scored by eye
E. coli 25922 = assay: Minimum Inhibitory Concentration (MIC) determination, E. coli 25922; design: unit not given here
Method: (§1) MICs were determined by performing two-fold serial dilutions of peptides in LB broth to a final volume of 0.1 ml in round-bottom 96-well assay plates (Corning Life Sciences No 3788). Peptides were initially resuspended in 100% DMSO to 10 mM and subsequently diluted in LB medium to the appropriate concentration. Each well was inoculated with 5×10^5 CFU/ml of the screening stain and incubated at 37° C. without agitation for 18 hours. Plates were scored by eye, and the lowest compound concentration preventing visible growth was determined to be the MIC.

E. coli BW25113 = assay: Minimum Inhibitory Concentration (MIC) determination, E. coli BW25113; design: unit not given here
Method: as §1

E. coli 25922 IMP = assay: Minimum Inhibitory Concentration (MIC) determination, E. coli 25922 IMP
Method: as §1

Row | SMILES | MIC E. coli 25922 WUXI::MIC (E. coli 25922) | MIC E. coli BW25113 WUXI::MIC (E. coli BW25113) | MIC E. coli 25922 IMP WUXI::MIC (E. coli 25922 IMP)
1 | CC[C@@H]1NC(=O)[C@H](Cc2ccccc2)NC(=O)CSC[C@@H](C(=O)NCC(N)=O)NC(=O)[C@H](Cc2cncn2C)NC(=O)[C@H](CCC(N)=O)NC(=O)[C@H](Cc2c[nH]cn2)NC(=O)[C@H](Cc2ccc(O)cc2)N(C)C(=O)[C@H](CCCNC(=N)N)NC(=O)[C@H](CO)NC(=O)CNC(=O)[C@H](Cc2c[nH]cn2)NC(=O)[C@H](Cc2cccc3ccccc23)NC1=O (racemic) [Compound 42] | 100 |  | 
2 | CCC1NC(=O)C(Cc2c[nH]cn2)NC(=O)C(Cc2ccc(O)cc2)N(C)C(=O)C(CCCNC(=N)N)NC(=O)C(CO)NC(=O)CNC(=O)C(Cc2c[nH]cn2)NC(=O)C(Cc2cccc3ccccc23)NC(=O)C(CC)NC(=O)C(Cc2ccccc2)N(C)C(=O)CSCC(C(=O)NCC(N)=O)NC(=O)C(Cc2cncn2C)NC1=O (racemic) [Compound 44] | >100 |  | 
3 | CC[C@@H]1NC(=O)[C@H](Cc2ccccc2)N(C)C(=O)CSC[C@@H](C(=O)NCC(N)=O)NC(=O)[C@H](Cc2cncn2C)NC(=O)[C@H](CCC(N)=O)NC(=O)[C@H](Cc2c[nH]cn2)NC(=O)[C@H](Cc2ccc(O)cc2)N(C)C(=O)[C@H](CCCNC(=N)N)NC(=O)[C@H](CO)NC(=O)CNC(=O)[C@H](Cc2c[nH]cn2)NC(=O)[C@H](Cc2cccc3ccccc23)NC1=O (racemic) [Compound 45] | >100 |  | 
4 | CC[C@@H]1NC(=O)[C@H](Cc2ccccc2)NC(=O)CSC[C@@H](C(=O)NCC(N)=O)NC(=O)[C@H](Cc2cncn2C)NC(=O)[C@H](CN)NC(=O)[C@H](Cc2c[nH]cn2)NC(=O)[C@H](Cc2ccc(O)cc2)N(C)C(=O)[C@H](CCCNC(=N)N)NC(=O)[C@H](CO)NC(=O)CNC(=O)[C@H](Cc2c[nH]cn2)NC(=O)[C@H](Cc2cccc3ccccc23)NC1=O (racemic) [Compound 46] | 100 |  | 
5 | CC[C@@H]1NC(=O)[C@H](Cc2ccccc2)N(C)C(=O)CSC[C@@H](C(=O)NCC(N)=O)NC(=O)[C@H](Cc2cncn2C)NC(=O)[C@H](CN)NC(=O)[C@H](Cc2c[nH]cn2)NC(=O)[C@H](Cc2ccc(O)cc2)N(C)C(=O)[C@H](CCCNC(=N)N)NC(=O)[C@H](CO)NC(=O)CNC(=O)[C@H](Cc2c[nH]cn2)NC(=O)[C@H](Cc2cccc3ccccc23)NC1=O (racemic) [Compound 48] | >100 |  | 
6 | CC[C@@H]1NC(=O)[C@H](Cc2ccccc2)N(C)C(=O)CSC[C@@H](C(=O)NCC(N)=O)NC(=O)[C@H](Cc2cncn2C)NC(=O)[C@H](CCN)NC(=O)[C@H](Cc2c[nH]cn2)NC(=O)[C@H](Cc2ccc(O)cc2)N(C)C(=O)[C@H](CCCNC(=N)N)NC(=O)[C@H](CO)NC(=O)CNC(=O)[C@H](Cc2c[nH]cn2)NC(=O)[C@H](Cc2cccc3ccccc23)NC1=O (racemic) [Compound 49] | 50 |  | 
7 | CC[C@@H]1NC(=O)[C@H](Cc2ccccc2)NC(=O)CSC[C@@H](C(=O)NCC(N)=O)NC(=O)[C@H](Cc2cncn2C)NC(=O)[C@H](CC)NC(=O)[C@H](Cc2c[nH]cn2)NC(=O)[C@H](Cc2ccc(O)cc2)N(C)C(=O)[C@H](CCCNC(=N)N)NC(=O)[C@H](CO)NC(=O)CNC(=O)[C@H](Cc2c[nH]cn2)NC(=O)[C@H](Cc2cccc3ccccc23)NC1=O (stereo in doubt) [Compound 41] | >100 |  | 
8 | CC[C@@H]1NC(=O)[C@H](Cc2c[nH]cn2)NC(=O)[C@H](Cc2ccccc2)N(C)C(=O)[C@H](CC)NC(=O)[C@H](CO)NC(=O)CNC(=O)[C@H](Cc2c[nH]cn2)NC(=O)[C@H](Cc2cccc3ccccc23)NC(=O)[C@H](C(C)C)NC(=O)[C@H](Cc2ccccc2)NC(=O)CSC[C@@H](C(=O)NCC(N)=O)NC(=O)[C@H](Cc2cncn2C)NC1=O [Compound 8, (3R,6S,9S,12S,15S,18S,21S,27S,30S, 33S,36S)-N-(2-amino-2-oxo-ethyl)-15,36-dibenzyl-9,18-diethyl-21-(hydroxymethyl)-12,27-bis(1H-imidazol-4-ylmethyl)-33-isopropyl-16-methyl-6-[(3-methylimidazol-4-yl)methyl]-30-(1-naphthylmethyl)-5,8,11,14,17,20,23,26,29,32,35,38-dodecaoxo-1-thia-4,7,10,13,16,19,22,25,28,31,34,37-dodecazacyclononatriacontane-3-carboxamide] ({CH2CO}-FV[1Nal]HGS[Abu][NMeF]H[Abu][His(π-Me)]CG-NH2; thioether N-12) |  | >32 | 4
9 | CC[C@@H]1NC(=O)[C@H](Cc2ccccc2)N(C)C(=O)CSC[C@@H](C(=O)NCC(N)=O)NC(=O)[C@H](Cc2cncn2C)NC(=O)[C@H](CCCNC(=N)N)NC(=O)[C@H](Cc2c[nH]cn2)NC(=O)[C@H](Cc2ccc(O)cc2)N(C)C(=O)[C@H](CCCNC(=N)N)NC(=O)[C@H](CO)NC(=O)CNC(=O)[C@H](Cc2c[nH]cn2)NC(=O)[C@H](Cc2cccc3ccccc23)NC1=O [Compound 23] ({CH2CO}-[NMeF][Abu][1Nal]HGSR[NMeY]HR[His(π-Me)]CG-NH2; thioether N-12) | 25 |  | 0.016
10 | CC[C@@H]1NC(=O)[C@H](Cc2ccccc2)NC(=O)CSC[C@@H](C(=O)NCC(N)=O)NC(=O)[C@H](Cc2cncn2C)NC(=O)[C@H](CCCNC(=N)N)NC(=O)[C@H](Cc2c[nH]cn2)NC(=O)[C@H](Cc2ccc(O)cc2)N(C)C(=O)[C@H](CCCNC(=N)N)NC(=O)[C@H](CO)NC(=O)CNC(=O)[C@H](Cc2c[nH]cn2)NC(=O)[C@H](Cc2ccc(-c3ccccc3)cc2)NC1=O [Compound 24] ({CH2CO}-F[Abu][Bip]HGSR[NMeY]HR[His(π-Me)]CG-NH2; thioether N-12) | 13 |  | 0.016
11 | CC[C@H](C)[C@@H]1NC(=O)[C@H]([C@@H](C)O)NC(=O)[C@H](Cc2cncn2C)NC(=O)[C@H](Cc2ccccc2)NC(=O)CSC[C@@H](C(=O)NCC(N)=O)NC(=O)[C@H](Cc2ccc(O)cc2)NC(=O)[C@H](Cc2c[nH]c3ccccc23)NC(=O)[C@H](Cc2ccc(O)cc2)NC(=O)[C@H](CCCNC(=N)N)NC(=O)[C@H](Cc2ccccc2)NC(=O)C(C)(C)NC(=O)[C@H](CCCNC(=N)N)NC(=O)[C@H](CCCCN)NC(=O)[C@H](CCCNC(=N)N)NC1=O [Compound 52] ({CH2CO}-F[His(π-Me)]TIRKR[Aib]FRYWYCG-NH2; thioether N-14) |  | 1 | 0.125
12 | CC[C@H](C)[C@@H]1NC(=O)[C@H]([C@@H](C)O)NC(=O)[C@H](Cc2cncn2C)NC(=O)[C@H](Cc2ccccc2)NC(=O)CSC[C@@H](C(=O)NCC(N)=O)NC(=O)[C@H](Cc2ccc(O)cc2)NC(=O)[C@H](Cc2c[nH]c3ccccc23)NC(=O)[C@H](Cc2ccc(O)cc2)NC(=O)[C@H](Cc2cncn2C)NC(=O)[C@H](Cc2ccccc2)NC(=O)C(C)(C)NC(=O)[C@H](CCCNC(=N)N)NC(=O)[C@H](CCCNC(=N)N)NC(=O)[C@H](CCCNC(=N)N)NC1=O [Compound 53] ({CH2CO}-F[His(π-Me)]TIRRR[Aib]F[His(π-Me)]YWYCG-NH2; thioether N-14) |  | 4 | 0.25
13 | CC[C@H](C)[C@@H]1NC(=O)[C@H]([C@@H](C)O)NC(=O)[C@H](Cc2cncn2C)NC(=O)[C@H](Cc2ccccc2)NC(=O)CSC[C@@H](C(=O)NCC(N)=O)NC(=O)[C@H](Cc2ccccc2)NC(=O)[C@H](Cc2c[nH]c3ccccc23)NC(=O)[C@H](Cc2ccc(O)cc2)NC(=O)[C@H](Cc2cncn2C)NC(=O)[C@H](Cc2ccccc2)NC(=O)C(C)(C)NC(=O)[C@H](CCCNC(=N)N)NC(=O)[C@H](CCCCN)NC(=O)[C@H](CCCNC(=N)N)NC1=O [Compound 54, trifluoroacetic acid] ({CH2CO}-F[His(π-Me)]TIRKR[Aib]F[His(π-Me)]YWFCG-NH2; thioether N-14) |  | 8 | 0.5
14 | CC[C@H](C)[C@@H]1NC(=O)C(C)(C)NC(=O)[C@H](Cc2cncn2C)NC(=O)[C@H](Cc2ccccc2)NC(=O)CSC[C@@H](C(=O)NCC(N)=O)NC(=O)[C@H](Cc2ccc(O)cc2)NC(=O)[C@H](Cc2c[nH]c3ccccc23)NC(=O)[C@H](Cc2ccc(O)cc2)NC(=O)[C@H](Cc2cncn2C)NC(=O)[C@H](Cc2ccccc2)NC(=O)C(C)(C)NC(=O)[C@H](CCCNC(=N)N)NC(=O)[C@H](CCCCN)NC(=O)[C@H](CCCNC(=N)N)NC1=O [Compound 56] ({CH2CO}-F[His(π-Me)][Aib]IRKR[Aib]F[His(π-Me)]YWYCG-NH2; thioether N-14) |  | >32 | 8
15 | CC[C@H](C)[C@@H]1NC(=O)C(C)(C)NC(=O)[C@H](Cc2cncn2C)NC(=O)[C@H](Cc2ccccc2)NC(=O)CSC[C@@H](C(=O)NCC(N)=O)NC(=O)[C@H](Cc2ccc(O)cc2)NC(=O)[C@H](Cc2c[nH]c3ccccc23)NC(=O)[C@H](Cc2ccc(O)cc2)NC(=O)[C@H](CCCNC(=N)N)NC(=O)[C@H](Cc2ccccc2)NC(=O)C(C)(C)NC(=O)[C@H](CCCNC(=N)N)NC(=O)[C@H](CCCCN)NC(=O)[C@H](CCCNC(=N)N)NC1=O [Compound 57] ({CH2CO}-F[His(π-Me)][Aib]IRKR[Aib]FRYWYCG-NH2; thioether N-14) |  | >32 | 2
16 | CC[C@H](C)[C@@H]1NC(=O)[C@H]([C@@H](C)O)NC(=O)[C@H](Cc2cncn2C)NC(=O)[C@H](Cc2ccccc2)NC(=O)CSC[C@@H](C(=O)NCC(N)=O)NC(=O)[C@H](Cc2ccc(O)cc2)NC(=O)[C@H](Cc2ccc(Cl)cc2)NC(=O)[C@H](Cc2ccc(O)cc2)NC(=O)[C@H](CCCNC(=N)N)NC(=O)[C@H](Cc2ccccc2)NC(=O)C(C)(C)NC(=O)[C@H](CCCNC(=N)N)NC(=O)[C@H](CCCCN)NC(=O)[C@H](CCCNC(=N)N)NC1=O [Compound 58] ({CH2CO}-F[His(π-Me)]TIRKR[Aib]FRY[Phe(4-Cl)]YCG-NH2; thioether N-14) |  | 2 | 0.25
